Source: patent US7038074B2, “Arginine mimetics as factor Xa inhibitors” (Wilex AG, priority 2000, dated 2006)
“Also recorded” adds a separate entry of the source. Read-outs that look alike come from different tables or passages of the source.

What was measured:
factor Xa [1] = details: prior art, Gabriel et al. 1998; cited from earlier work
factor Xa [2] = assay: Determining the inhibitor constants (Ki, Dixon), factor Xa; format: biochemical, bovine or human
Method: (§1) The measurements were carried out at 25° C. on a microplate reader (MR 5000, Dynatech, Denkendorf, Germany). The test medium consisted of 200 μl of Tris buffer (0.05 M; 0.154 M NaCl, 5% ethanol, pH 8.0), 25 μl of aqueous substrate solution and 50 μl of enzyme solution. Two concentrations of the substrate and five concentrations of the inhibitor were used. Three minutes after adding the enzyme, 25 μl of acetic acid (50%) were added in order to quench the reaction and the optical density was measured at 405 nm. The Ki values were calculated in accordance with Dixon (M. Dixon (1953), Biochem. J. 55, 170–171) using a linear regression. The Ki values given in FIGS. 2 and 3 are means of at least three determinations.
(§2) The following enzymes and the corresponding substrates were used at the given final concentrations: bovine thrombin, prepared in accordance with Walsmann (P. Walsmann (1968), Pharmazie 23, 401–402) (2 262 U/mg, final concentration 0.45 U/ml), substrate MeSO2-D-hexahydrotyrosyl-Gly-Arg-pNA (final concentration 0.18 and 0.09 mM); bovine factor Xa (5 U/vial, 0.11 U/ml; Diagnostic Reagents Ltd., Thame, UK), substrate MeSO2-D-Nle-Gly-Arg-pNA (0.36 and 0.18 mM); human factor Xa (0.18 μg/ml; Kordia Lab. Supplies, Leiden, Netherlands), substrate as for bovine factor Xa human plasmin (0.67 CTA U/mg, 0.06 CTA U/ml; Behringwerke AG, Marburg, Germany), substrate Tos-Gly-Pro-Lys-pNA (0.18 and 0.09 mM); human uPA (500 000 U/vial, final concentration 150 U/ml; Ribosepharm GmbH Haan, Germany), substrate Bz-βAla-Gly-Arg-pNA (0.18 and 0.09 mM); bovine pancreas trypsin (42 U/mg, 0.0038 U/ml; Serva, Heidelberg, Germany), substrate MeSO2-D-hexahydrotyrosyl-Gly-Arg-pNA (0.18 and 0.06 mM).

human uPA = biological target: T1, human uPA (Homo sapiens, UniProt P00749); assay: Determining the inhibitor constants, uPA; format: biochemical
T1 construct: purchased Ribosepharm GmbH Haan, Germany
Method: as §1, §2

[3] = Chemical and enzymic stability, stability towards acids; format: physicochemical; details: for example stomach acids
bovine thrombin = biological target: T2, bovine thrombin (Bos taurus, UniProt P00735); assay: Determining the inhibitor constants, thrombin; format: biochemical
T2 construct: converts the zymogen prothrombin into its active form thrombin; made in house
Method: as §1, with “determinations. […]” for “determinations.”

bovine pancreas trypsin = biological target: T3, bovine pancreas trypsin (Bos taurus, UniProt P00760); assay: Determining the inhibitor constants, trypsin; format: biochemical
T3 construct: purchased Serva, Heidelberg, Germany; host or cells: bovine pancreas
T3 sequence (P00760 24-246): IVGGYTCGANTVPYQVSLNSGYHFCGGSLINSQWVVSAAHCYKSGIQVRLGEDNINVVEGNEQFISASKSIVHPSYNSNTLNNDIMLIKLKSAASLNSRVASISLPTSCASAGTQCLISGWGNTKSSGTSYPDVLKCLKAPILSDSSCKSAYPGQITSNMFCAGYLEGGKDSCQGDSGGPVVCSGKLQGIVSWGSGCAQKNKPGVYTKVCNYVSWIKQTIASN
Method: as §1, §2

factor Xa [4] = biological target: T4, factor Xa (UniProt P00743); assay: Determining the inhibitor constants (Ki, Dixon), factor Xa; format: biochemical, bovine or human; details: for Ki: 25° C., pH 8.0, species of factor Xa not given
T4 construct: Ki factor Xa; other: 25° C., pH 8.0; factor Xa activity of the D-enantiomer relative to the L-enantiomer 27; other: compound 28 versus compound 27; other: relative to compound 31
Method: as §1, §2

SMILES	inhibition of uPA (in words) (human uPA)	inhibitory effect on factor Xa (in words) (factor Xa [2])	inhibition of / affinity for trypsin (in words) (bovine pancreas trypsin)	other results
CCOC(=O)C(Cc1ccc(C(=N)N)cc1)NC(=O)CNS(=O)(=O)c1ccc(C(=N)N)cc1 (racemic) [Compound 2, N^α-4-amidinobenzenesulfonylglycyl-D,L-4-amidinophenylalanine ethyl ester]	–	–	–	Ki (factor Xa [1]): 500 nM
COC(=O)C(Cc1cccc(C(=N)N)c1)NC(=O)OC12CC3CC(CC(C3)C1)C2.Cl (racemic) [Compound 11, N-1-adamantyloxycarbonyl-D,L-3-amidinophenylalanine methyl ester hydrochloride]	–	–	–	selectivity for factor Xa vis-à-vis uPA, thrombin and trypsin (factor Xa [2]): remarkable selectivity; inhibitory effect on factor Xa (in words) (factor Xa [2]; hydrochloride): significantly increased inhibitory effect; also recorded: submicromolar inhibition
COC(=O)C(Cc1cccc(C(=N)N)c1)NC(=O)NC12CC3CC(CC(C3)C1)C2.Cl (racemic) [Compound 12, N-1-adamantylaminocarbonyl-D,L-3-amidinophenylalanine methyl ester hydrochloride]	dramatic effects on the inhibition of uPA	–	–	stability (acids; chemical and enzymic) [3]: desirable stability towards acids
Cl.N=C(N)c1cccc(CC(NC(=O)OC23CC4CC(CC(C4)C2)C3)C(=O)O)c1 (racemic) [Compound 15, N-1-adamantyloxylcarbonyl-D,L-3-amidinophenylalanine hydrochloride]	–	does not show any important differences	–	–
COC(=O)C(Cc1ccc(NC(=N)N)cc1)NC(=O)OC12CC3CC(CC(C3)C1)C2.Cl (racemic) [Compound 26, N-1-adamantyloxycarbonyl-D,L-4-guanidinophenylalanine methyl ester hydrochloride]	dramatic loss in inhibitory activity	dramatic loss in inhibitory activity	dramatic loss in inhibitory activity	inhibition of thrombin (in words) (bovine thrombin): dramatic loss in inhibitory activity
Cl.N=C(N)c1cccc(CC(NC(=O)OC23CC4CC(CC(C4)C2)C3)C(=O)N2CCCCC2)c1 [Compound 17, N-1-adamantyloxycarbonyl-D,L-3-amidinophenylalanine piperidide hydrochloride]	–	does not show any important differences	–	–
COC(=O)[C@H](Cc1cccc(C(=N)N)c1)NC(=O)OC12CC3CC(CC(C3)C1)C2.Cl [Compound 27, N-1-adamantyloxycarbonyl-L-3-amidinophenylalanine methyl ester hydrochloride]	only capable of recognizing the L-enantiomer	–	almost identical affinity	–
COC(=O)[C@@H](Cc1cccc(C(=N)N)c1)NC(=O)OC12CC3CC(CC(C3)C1)C2.Cl [Compound 28, N-1-adamantyloxycarbonyl-D-3-amidinophenylalanine methyl ester hydrochloride]	only capable of recognizing the L-enantiomer	–	almost identical affinity	Ki (factor Xa [4]): 390 nM; factor Xa activity of the D-enantiomer relative to the L-enantiomer 27 (factor Xa [4]; compound 28 versus compound 27): about 10 times
Cl.N=C(N)c1cccc(C[C@@H](NC(=O)OC23CC4CC(CC(C4)C2)C3)C(=O)NCCc2ccccc2)c1 [Compound 31, N-1-adamantyloxycarbonyl-D-3-amidinophenylalanine-(2-phenyl)-1-ethylamine hydrochloride]	–	–	–	Ki (factor Xa [4]): 74 nM; inhibitory effect on factor Xa (in words) (factor Xa [2]; hydrochloride): strongest inhibitor; inhibitory effect on factor Xa (in words) (factor Xa [2]; listed as N-1-adamantyloxycarbonyl-D-3-amidinophenylalanine-(2-phenyl)-1-ethylamide, hydrochloride): very powerful inhibitory effect
N=C(N)c1cccc(C[C@@H](NC(=O)NC23CC4CC(CC(C4)C2)C3)C(=O)NCCc2ccccc2)c1 [Compound 32, N-(1-adamantylaminocarbonyl)-D-3-amidinophenylalanine-(2-phenyl)-1-ethylamide]	–	even more powerful inhibitory effect	–	factor by which FXa is inhibited better than by compound 31 (factor Xa [4]; relative to compound 31): 3
